Reference: US11312712B2, “Azabenzimidazoles and their use as AMPA receptor modulators” (Janssen Pharmaceutica NV, priority 2015, dated 2022)

Each compound was assayed against GluA1o-γ8 (GRIA1o-CACNG8 fusion construct) (Homo sapiens (Human), UniProt P42261+Q8WXS5) (assay: Calcium flux assay (FLIPR), inhibition of TARP γ8 dependent AMPA receptor activity). Conditions: GluA1o-γ8 (GRIA1o-CACNG8 fusion) in HEK293 cells, calcium flux after 15 μM glutamate.
Assay type: cell-based
Text: This assay was used to test compounds for their ability to inhibit TARP γ8 dependent AMPA receptor activity. The AMPA receptor is a non-selective cation channel activated by glutamate. Ionotropic glutamate receptors normally desensitize too rapidly to allow detectable calcium influx in a FLIPR assay (Strange et al. (2006). “Functional characterisation of homomeric ionotropic glutamate receptors GluR1-GluR6 in a fluorescence-based high throughput screening assay.” Comb Chem High Throughput Screen 9(2): 147-158). But, this desensitization is incomplete, and a substantial steady-state current remains in the sustained presence of glutamate (Cho et al. (2007). “Two families of TARP isoforms that have distinct effects on the kinetic properties of AMPA receptors and synaptic currents.” Neuron 55(6): 890-904).
An in vitro assay was used to determine the potency of test compounds as inhibitors of the glutamate response of the channel formed by GluA1o-γ8. To ensure a 1:1 stoichiometry of GluA1o and γ8 subunits in the expressed channel, a fusion of the cDNAs for GRIA1o and CACNG8 was used. Following Shi et al (2009) “The stoichiometry of AMPA receptors and TARPs varies by neuronal cell type.” Neuron 62(5): 633-640), the C-terminus of the cDNA for GRIA1o was fused to the N-terminus of the cDNA for γ8. The linker sequence was QQQQQQQQQQEFAT. Channels expressed with this construct appear to have similar properties to channels formed by co-expression of GRIA1o with an excess of CACNG8 (Shi et al. 2009). A clonal cell line in HEK293 cells stably expressing this construct, with a geneticin selection marker, was generated for use in this assay.
Cell expressing the GRIA1o-CACNG8 fusion construct were grown in a monolayer in 96- or 384-well microtiter plates. They were washed with assay buffer (135 mM NaCl, 4 mM KCl, 3 mM CaCl2, 1 mM MgCl2, 5 mM glucose, 10 mM HEPES, pH 7.4, 300 mOs) using a Biotek EL405 plate washer. The cells were then loaded with a calcium-sensitive dye (Calcium-5 or Calcium-6, Molecular Devices) and the test compounds at a range of concentrations. Calcium flux following the addition of 15 μM glutamate was monitored using a Molecular Devices FLIPR Tetra. The fluorescence in each well was normalized to the fluorescence of negative and positive control wells. The negative control wells had no added compounds, and the positive control wells had been incubated with 10 μM CP465022 (a non-subtype-selective AMPA receptor antagonist) (Lazzaro et al. (2002). “Functional characterization of CP-465,022, a selective, noncompetitive AMPA receptor antagonist.” Neuropharmacology 42(2): 143-153). The responses to glutamate as functions of the test compound concentrations were fitted to a four-parameter logistic function. The fitted parameter corresponding to the midpoint was taken to be the potency of inhibition of the compound. The data in Table 4 below illustrates the observed potentcy for the compounds described herein. pIC50 refers to the negative log of the IC50 in molar.

Chain of GluA1o-γ8 (GRIA1o-CACNG8 fusion construct) (P42261 other isoform, or with tags, fused parts or gaps): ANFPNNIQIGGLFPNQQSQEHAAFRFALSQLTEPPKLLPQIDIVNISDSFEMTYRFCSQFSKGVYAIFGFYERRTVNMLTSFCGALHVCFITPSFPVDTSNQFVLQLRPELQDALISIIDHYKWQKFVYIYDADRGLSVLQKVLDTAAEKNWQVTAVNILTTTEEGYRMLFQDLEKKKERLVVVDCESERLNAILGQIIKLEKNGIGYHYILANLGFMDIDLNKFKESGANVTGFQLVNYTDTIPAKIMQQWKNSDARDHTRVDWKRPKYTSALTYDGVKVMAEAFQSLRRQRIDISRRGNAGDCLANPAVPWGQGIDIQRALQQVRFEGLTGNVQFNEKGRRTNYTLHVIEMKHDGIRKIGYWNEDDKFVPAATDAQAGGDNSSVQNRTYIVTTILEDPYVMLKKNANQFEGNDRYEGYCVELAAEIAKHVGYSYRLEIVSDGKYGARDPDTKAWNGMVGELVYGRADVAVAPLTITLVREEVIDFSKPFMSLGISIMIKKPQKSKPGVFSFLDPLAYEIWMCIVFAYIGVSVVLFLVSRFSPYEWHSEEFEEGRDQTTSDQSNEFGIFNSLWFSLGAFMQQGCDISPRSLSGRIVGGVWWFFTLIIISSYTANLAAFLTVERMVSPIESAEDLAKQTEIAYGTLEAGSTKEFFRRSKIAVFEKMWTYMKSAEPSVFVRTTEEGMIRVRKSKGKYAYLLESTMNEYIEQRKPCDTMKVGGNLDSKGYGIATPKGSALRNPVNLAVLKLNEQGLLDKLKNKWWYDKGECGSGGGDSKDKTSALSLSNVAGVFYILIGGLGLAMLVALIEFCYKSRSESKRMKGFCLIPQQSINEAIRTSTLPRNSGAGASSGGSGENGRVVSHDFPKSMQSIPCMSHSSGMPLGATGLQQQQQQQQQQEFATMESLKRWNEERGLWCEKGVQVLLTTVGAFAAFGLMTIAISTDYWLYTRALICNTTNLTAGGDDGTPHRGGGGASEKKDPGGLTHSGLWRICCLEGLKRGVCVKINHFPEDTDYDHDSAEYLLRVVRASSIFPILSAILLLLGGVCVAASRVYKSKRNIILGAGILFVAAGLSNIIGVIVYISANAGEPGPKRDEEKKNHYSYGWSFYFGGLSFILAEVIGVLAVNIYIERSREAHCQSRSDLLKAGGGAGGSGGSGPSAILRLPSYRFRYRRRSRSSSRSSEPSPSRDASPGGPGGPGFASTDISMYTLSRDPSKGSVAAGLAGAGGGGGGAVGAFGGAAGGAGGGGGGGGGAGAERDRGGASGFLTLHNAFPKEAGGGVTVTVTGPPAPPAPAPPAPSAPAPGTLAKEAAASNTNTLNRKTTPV

Row | Compound | IC50 [nM]
1 | O=C1Cc2cc(-n3c(C4CCOCC4)nc4ccc(C(F)(F)F)nc43)ccc2N1 [Example 50, 5-[2-Tetrahydropyran-4-yl-5-(trifluoromethyl)imidazo[4,5-b]pyridin-3-yl]indolin-2-one] | 63.1
2 | CC(C)Cc1nc2ccc(C(F)(F)F)nc2n1-c1ccc2c(c1)CC(=O)N2 [Example 51, 5-[2-Isobutyl-5-(trifluoromethyl)imidazo[4,5-b]pyridin-3-yl]indolin-2-one] | 10
3 | O=C1Cc2cc(-n3c(CCC(F)(F)F)nc4ccc(C(F)(F)F)nc43)ccc2N1 [Example 53, 5-[5-(Trifluoromethyl)-2-(3,3,3-trifluoropropyl)imidazo[4,5-b]pyridin-3-yl]indolin-2-one] | 79.4
4 | O=C1Cc2cc(-n3c(CC4CCCC4)nc4ccc(C(F)(F)F)nc43)ccc2N1 [Example 54, 5-[2-(Cyclopentylmethyl)-5-(trifluoromethyl)imidazo[4,5-b]pyridin-3-yl]indolin-2-one] | 6.31
5 | O=C1Cc2cc(-n3c(C4CC4)nc4ccc(C(F)(F)F)nc43)ccc2N1 [Example 55, 5-[2-Cyclopropyl-5-(trifluoromethyl)imidazo[4,5-b]pyridin-3-yl]indolin-2-one] | 7.94
6 | O=C1Cc2cc(-n3c(Cc4cnccn4)nc4ccc(C(F)(F)F)nc43)ccc2N1 [Example 57, 5-[2-(Pyrazin-2-ylmethyl)-5-(trifluoromethyl)imidazo[4,5-b]pyridin-3-yl]indolin-2-one] | 15800
7 | FC(F)(F)c1ccc2nc(C3CCCC3)n(-c3ccc4[nH]ccc4c3)c2n1 [Example 58, 2-Cyclopentyl-3-(1H-indol-5-yl)-5-(trifluoromethyl)imidazo[4,5-b]pyridine] | 12.6
8 | CC(C)(C)c1nc2ccc(C(F)(F)F)nc2n1-c1ccc2[nH]ccc2c1 [Example 59, 2-tert-Butyl-3-(1H-indol-5-yl)-5-(trifluoromethyl)imidazo[4,5-b]pyridine] | 251
9 | O=C1Cc2cc(-n3c(C4CCCC4)nc4ccc(C(F)(F)F)nc43)ccc2N1 [Example 60, 5-[2-Cyclopentyl-5-(trifluoromethyl)imidazo[4,5-b]pyridin-3-yl]indolin-2-one] | 2
10 | CC(C)(C)c1nc2ccc(C(F)(F)F)nc2n1-c1ccc2c(c1)CC(=O)N2 [Example 61, 5-[2-tert-Butyl-5-(trifluoromethyl)imidazo[4,5-b]pyridin-3-yl]indolin-2-one] | 12.6
11 | Fc1ccc(-c2nc3c(N4CCOCC4)ccnc3n2-c2ccc3[nH]ncc3c2)cc1 [Example 62, 4-[2-(4-Fluorophenyl)-3-(1H-indazol-5-yl)imidazo[4,5-b]pyridin-7-yl]morpholine] | 6.31
12 | O=C1Cc2cc(-n3c(-c4ccc(F)cc4)nc4c(N5CCOCC5)ccnc43)ccc2N1 [Example 63, 5-[2-(4-Fluorophenyl)-7-morpholino-imidazo[4,5-b]pyridin-3-yl]indolin-2-one] | 3.16
13 | O=c1[nH]c2ccc(-n3c(-c4ccccc4)nc4ccc(N5CCCCC5)nc43)cc2s1 [Example 64, 6-[2-Phenyl-5-(1-piperidyl)imidazo[4,5-b]pyridin-3-yl]-3H-1,3-benzothiazol-2-one] | 5.01
14 | O=c1[nH]c2ccc(-n3c(-c4ccccc4)nc4ccc(N5CCOCC5)nc43)cc2s1 [Example 65, 6-(5-Morpholino-2-phenyl-imidazo[4,5-b]pyridin-3-yl)-3H-1,3-benzothiazol-2-one] | 316
15 | CN(C)c1ccc2nc(-c3ccccc3)n(-c3ccc4[nH]c(=O)sc4c3)c2n1 [Example 66, 6-[5-(Dimethylamino)-2-phenyl-imidazo[4,5-b]pyridin-3-yl]-3H-1,3-benzothiazol-2-one] | 12.6
16 | O=c1[nH]c2ccc(-n3c(-c4ccccc4)nc4ccc(C(F)F)nc43)cc2s1 [Example 67, 6-(5-(Difluoromethyl)-2-phenyl-3H-imidazo[4,5-b]pyridin-3-yl)benzo[d]thiazol-2(3H)-one] | 0.1
17 | O=c1[nH]c2ccc(-n3c(-c4ccc(C(F)F)cc4)nc4cccnc43)cc2s1 [Example 68, 6-[2-[4-(Difluoromethyl)phenyl]imidazo[4,5-b]pyridin-3-yl]-3H-1,3-benzothiazol-2-one] | 25.1

Row | Compound | IC50 [nM]
18 | O=c1[nH]c2ccc(-n3c(-c4ccccc4)nc4c(C(F)F)ccnc43)cc2s1 [Example 69, 6-[7-(Difluoromethyl)-2-phenyl-imidazo[4,5-b]pyridin-3-yl]-3H-1,3-benzothiazol-2-one] | 1.26
19 | CC(C)c1ccnc2c1nc(-c1ccccc1)n2-c1ccc2[nH]c(=O)sc2c1 [Example 70, 6-(7-Isopropyl-2-phenyl-imidazo[4,5-b]pyridin-3-yl)-3H-1,3-benzothiazol-2-one] | 0.631
20 | O=c1[nH]c2ccc(-n3c(-c4ccc(F)cc4)nc4ccc(CO)nc43)cc2s1 [Example 71, 6-(2-(4-Fluorophenyl)-5-(hydroxymethyl)-3H-imidazo[4,5-b]pyridin-3-yl)benzo[d]thiazol-2(3H)-one] | 39.8
21 | Cc1cc(O)c2nc(-c3ccc(F)cc3)n(-c3ccc4[nH]c(=O)sc4c3)c2n1 [Example 72, 6-(2-(4-Fluorophenyl)-7-hydroxy-5-methyl-3H-imidazo[4,5-b]pyridin-3-yl)benzo[d]thiazol-2(3H)-one] | 25.1
22 | O=C1Cc2cc(-n3c(CCCO)nc4ccc(C(F)(F)F)nc43)ccc2N1 [Example 73, 5-(2-(3-Hydroxypropyl)-5-(trifluoromethyl)-3H-imidazo[4,5-b]pyridin-3-yl)indolin-2-one] | 1260
23 | Cc1ccc2nc(C3CCC3)n(-c3ccc4c(c3)CC(=O)N4)c2n1 [Example 74, 5-(2-Cyclobutyl-5-methyl-imidazo[4,5-b]pyridin-3-yl)indolin-2-one] | 15.8
24 | CCc1nc2ccc(C)nc2n1-c1ccc2c(c1)CC(=O)N2 [Example 75, 5-(2-Ethyl-5-methyl-imidazo[4,5-b]pyridin-3-yl)indolin-2-one] | 251
25 | CC1(c2nc3ccc(C(F)(F)F)nc3n2-c2ccc3c(c2)CC(=O)N3)COC1 [Example 76, 5-[2-(3-Methyloxetan-3-yl)-5-(trifluoromethyl)imidazo[4,5-b]pyridin-3-yl]indolin-2-one] | 501
26 | COCCc1nc2ccc(C(F)(F)F)nc2n1-c1ccc2c(c1)CC(=O)N2 [Example 77, 5-[2-(2-Methoxyethyl)-5-(trifluoromethyl)imidazo[4,5-b]pyridin-3-yl]indolin-2-one] | 251
27 | c1cc2[nH]ncc2cc1-n1c(C2CCC2)nc2ccc(C3CC3)nc21 [Example 78, 2-Cyclobutyl-5-cyclopropyl-3-(1H-indazol-5-yl)imidazo[4,5-b]pyridine] | 0.158
28 | CC(C)c1nc2ccc(C3CC3)nc2n1-c1ccc2[nH]ncc2c1 [Example 79, 5-Cyclopropyl-3-(1H-indazol-5-yl)-2-isopropyl-imidazo[4,5-b]pyridine] | 2
29 | O=c1[nH]c2ccc(-n3c(C4CCC4)nc4ccc(C(F)(F)F)nc43)cc2o1 [Example 80, 6-[2-Cyclobutyl-5-(trifluoromethyl)imidazo[4,5-b]pyridin-3-yl]-3H-1,3-benzoxazol-2-one] | 2
30 | O=C(c1nc2ccc(C(F)(F)F)nc2n1-c1ccc2[nH]ncc2c1)N1CCC1 [Example 81, Azetidin-1-yl-[3-(1H-indazol-5-yl)-5-(trifluoromethyl)imidazo[4,5-b]pyridin-2-yl]methanone] | 501
31 | Nc1ccc2nc(-c3ccc(F)cc3)n(-c3ccc4[nH]c(=O)sc4c3)c2n1 [Example 82, 6-[5-Amino-2-(4-fluorophenyl)imidazo[4,5-b]pyridin-3-yl]-3H-1,3-benzothiazol-2-one] | 63.1
32 | CCC(CC)c1nc2ccc(C(F)(F)F)nc2n1-c1ccc2c(c1)CC(=O)N2 [Example 83, 5-[2-(1-Ethylpropyl)-5-(trifluoromethyl)imidazo[4,5-b]pyridin-3-yl]indolin-2-one] | 63.1
33 | Cc1ccc2nc(C(C)C)n(-c3ccc4c(c3)CC(=O)N4)c2n1 [Example 84, 5-(2-Isopropyl-5-methyl-imidazo[4,5-b]pyridin-3-yl)indolin-2-one] | 63.1
